The values that follow come from the supplement of paper PMC10307832.

What all share (assay): relative viability (nuclei count vs DMSO), 5 days (fraction); higher = more cells survive
Compound in the test “Tosedostat + Palbociclib”: CC(C)C[C@@H](C(=O)N[C@H](C(=O)OC1CCCC1)c1ccccc1)[C@H](O)C(=O)NO [Tosedostat] + CC(=O)c1c(C)c2cnc(Nc3ccc(N4CCNCC4)cn3)nc2n(C2CCCC2)c1=O [Palbociclib] (partner 0.5 µM)
A digest of the protocol:
(§1)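 The day after seeding in 1536-well plates, lung cancer cell lines were treated by pin tool with a single drug, or with a fixed anchor-drug dose together with five library-drug doses (not always all listed) in √10 steps. After 5 days, a combined fix-and-stain solution (final 0.05% Triton X-100, 1% formaldehyde, 1 ug/ml Hoechst) was added. Nuclei counted on 4× images gave relative viability as treated counts over vehicle counts, reported as the median of duplicate plates.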

Compound in test [1]: CC1=NN=C(O1)C2=NN=C(C=C2)N3CCC(CC3)OC4=C(C=CC(=C4)F)Cl + CS(=O)(=O)N1CCN(Cc2cc3nc(-c4cccc5[nH]ncc45)nc(N4CCOCC4)c3s2)CC1 [Pictilisib] (partner 1 µM)
The procedure, abridged:
as §1

Compound in test [2]: CC1=NN=C(O1)C2=NN=C(C=C2)N3CCC(CC3)OC4=C(C=CC(=C4)F)Cl + Nc1nc2[nH]cc(CCc3ccc(C(=O)N[C@@H](CCC(=O)O)C(=O)O)cc3)c2c(=O)[nH]1 [Pemetrexed] (partner 0.2 µM)
A digest of the protocol: as §1

Compound in the test “Tosedostat + Alpelisib”: CC(C)C[C@@H](C(=O)N[C@H](C(=O)OC1CCCC1)c1ccccc1)[C@H](O)C(=O)NO [Tosedostat] + Cc1nc(NC(=O)N2CCC[C@H]2C(N)=O)sc1-c1ccnc(C(C)(C)C(F)(F)F)c1 [Alpelisib] (partner 2 µM)
A digest of the protocol: as §1

As for SW 1573, the relative viability stood at 0.427 with Tosedostat + Palbociclib (first compound 0.02 µM); 0.394 with Tosedostat + Palbociclib (first compound 0.06325 µM); 0.369 with Tosedostat + Palbociclib (first compound 0.2 µM); 0.308 with Tosedostat + Palbociclib (first compound 0.6325 µM); 0.402 in the test with Tosedostat + Palbociclib (first compound 2 µM); 0.527 in test [1] (first compound 0.253 µM). Also, the relative viability in test [1] (first compound 0.8 µM) was 0.415; in test [1] (first compound 2.53 µM), 0.473; in test [1] (first compound 8 µM), 0.383; in test [2] (first compound 0.253 µM) it was 0.819; in test [2] (first compound 0.8 µM), 0.881; in test [2] (first compound 2.53 µM), 0.828. In addition, the relative viability in test [2] (first compound 8 µM) worked out at 0.534; with Tosedostat + Alpelisib (first compound 0.02 µM), 0.578; with Tosedostat + Alpelisib (first compound 0.06325 µM) it was 0.76; in the test with Tosedostat + Alpelisib (first compound 0.2 µM), 0.641; with Tosedostat + Alpelisib (first compound 0.6325 µM), 0.588; in the test with Tosedostat + Alpelisib (first compound 2 µM), 0.567.

With CAL-12T, the relative viability is 0.468 with Tosedostat + Palbociclib (first compound 0.02 µM); 0.362 in the test with Tosedostat + Palbociclib (first compound 0.06325 µM); 0.312 with Tosedostat + Palbociclib (first compound 0.2 µM); 0.299 with Tosedostat + Palbociclib (first compound 0.6325 µM); 0.397 with Tosedostat + Palbociclib (first compound 2 µM); 0.392 in test [1] (first compound 0.253 µM). Also, the relative viability in test [1] (first compound 0.8 µM) was 0.553; in test [1] (first compound 2.53 µM) it was 0.327; in test [1] (first compound 8 µM), 0.191; in test [2] (first compound 0.253 µM), 0.946; in test [2] (first compound 0.8 µM), 1.05; in test [2] (first compound 2.53 µM), 1.03. Further, the relative viability worked out at 0.9 in test [2] (first compound 8 µM); 1.28 with Tosedostat + Alpelisib (first compound 0.02 µM); 1.14 with Tosedostat + Alpelisib (first compound 0.06325 µM); 1.3 with Tosedostat + Alpelisib (first compound 0.2 µM); 0.988 with Tosedostat + Alpelisib (first compound 0.6325 µM); 0.872 with Tosedostat + Alpelisib (first compound 2 µM).
